Assay [1] addresses Intestinal-type alkaline phosphatase (Homo sapiens, UniProt P09923). The assay can be described thus: human intestinal alkaline phosphatase activators, dose response, biochemical, luminescence, uHTS hits (AID 463120). In kind it is functional.
For assay [2], the target named is Protein-arginine deiminase type-4 (Homo sapiens, UniProt Q9UM07). The assay can be described thus: IC50 against protein arginine deiminase 4 – biochemical, fluorescence readout, dose response (AID 492970).
Sequence of Protein-arginine deiminase type-4 (Q9UM07 whole entry): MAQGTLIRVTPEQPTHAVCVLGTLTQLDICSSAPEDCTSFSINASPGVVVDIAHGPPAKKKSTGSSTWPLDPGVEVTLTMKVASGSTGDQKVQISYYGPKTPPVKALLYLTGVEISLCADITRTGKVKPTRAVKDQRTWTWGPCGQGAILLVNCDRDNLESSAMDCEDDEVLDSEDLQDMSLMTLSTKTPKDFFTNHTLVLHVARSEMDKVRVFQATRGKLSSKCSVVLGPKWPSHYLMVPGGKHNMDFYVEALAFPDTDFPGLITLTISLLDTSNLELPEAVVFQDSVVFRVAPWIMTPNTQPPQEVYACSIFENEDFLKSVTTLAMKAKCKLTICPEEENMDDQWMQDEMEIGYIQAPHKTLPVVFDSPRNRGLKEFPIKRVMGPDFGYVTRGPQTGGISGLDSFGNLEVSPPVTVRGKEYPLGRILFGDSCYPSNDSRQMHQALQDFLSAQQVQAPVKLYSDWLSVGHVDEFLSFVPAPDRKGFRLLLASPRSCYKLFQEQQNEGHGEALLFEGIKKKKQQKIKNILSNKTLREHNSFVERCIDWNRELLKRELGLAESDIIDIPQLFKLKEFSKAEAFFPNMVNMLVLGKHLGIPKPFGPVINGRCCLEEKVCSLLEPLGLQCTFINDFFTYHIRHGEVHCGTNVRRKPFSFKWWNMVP
For assay [3], the target named is T1, Replicative DNA helicase DnaB (Mycobacterium tuberculosis, UniProt P9WMR3).
T1 sequence (P9WMR3 whole entry): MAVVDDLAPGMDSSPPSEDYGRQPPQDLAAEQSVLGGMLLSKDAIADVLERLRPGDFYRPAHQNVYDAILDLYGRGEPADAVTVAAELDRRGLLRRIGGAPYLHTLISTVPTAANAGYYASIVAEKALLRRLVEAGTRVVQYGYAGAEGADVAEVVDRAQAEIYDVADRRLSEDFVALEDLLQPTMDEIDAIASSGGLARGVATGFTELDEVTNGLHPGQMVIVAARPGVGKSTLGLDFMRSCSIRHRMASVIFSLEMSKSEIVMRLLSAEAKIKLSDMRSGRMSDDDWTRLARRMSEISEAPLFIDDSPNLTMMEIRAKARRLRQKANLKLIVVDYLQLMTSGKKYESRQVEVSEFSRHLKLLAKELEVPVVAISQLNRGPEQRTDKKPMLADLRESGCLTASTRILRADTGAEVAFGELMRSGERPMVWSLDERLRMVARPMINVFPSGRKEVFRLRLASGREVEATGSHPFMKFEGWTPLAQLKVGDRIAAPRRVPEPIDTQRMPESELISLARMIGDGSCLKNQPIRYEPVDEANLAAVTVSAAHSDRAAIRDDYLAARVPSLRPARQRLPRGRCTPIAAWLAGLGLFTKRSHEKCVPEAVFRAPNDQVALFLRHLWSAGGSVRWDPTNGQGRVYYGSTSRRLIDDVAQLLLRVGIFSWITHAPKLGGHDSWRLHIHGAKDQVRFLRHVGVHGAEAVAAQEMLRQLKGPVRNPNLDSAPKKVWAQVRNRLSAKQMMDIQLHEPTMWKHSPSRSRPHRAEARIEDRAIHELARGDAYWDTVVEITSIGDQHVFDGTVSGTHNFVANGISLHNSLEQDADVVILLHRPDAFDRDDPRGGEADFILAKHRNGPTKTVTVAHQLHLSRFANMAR
Briefly: DnaB intein splicing inhibitors, dose response, biochemical, cell-free fluorescence (AID 449749). It counts as functional.

A further assay addresses T2, Protein RecA (Mycobacterium tuberculosis, UniProt P9WHJ3).
T2 sequence (P9WHJ3 whole entry): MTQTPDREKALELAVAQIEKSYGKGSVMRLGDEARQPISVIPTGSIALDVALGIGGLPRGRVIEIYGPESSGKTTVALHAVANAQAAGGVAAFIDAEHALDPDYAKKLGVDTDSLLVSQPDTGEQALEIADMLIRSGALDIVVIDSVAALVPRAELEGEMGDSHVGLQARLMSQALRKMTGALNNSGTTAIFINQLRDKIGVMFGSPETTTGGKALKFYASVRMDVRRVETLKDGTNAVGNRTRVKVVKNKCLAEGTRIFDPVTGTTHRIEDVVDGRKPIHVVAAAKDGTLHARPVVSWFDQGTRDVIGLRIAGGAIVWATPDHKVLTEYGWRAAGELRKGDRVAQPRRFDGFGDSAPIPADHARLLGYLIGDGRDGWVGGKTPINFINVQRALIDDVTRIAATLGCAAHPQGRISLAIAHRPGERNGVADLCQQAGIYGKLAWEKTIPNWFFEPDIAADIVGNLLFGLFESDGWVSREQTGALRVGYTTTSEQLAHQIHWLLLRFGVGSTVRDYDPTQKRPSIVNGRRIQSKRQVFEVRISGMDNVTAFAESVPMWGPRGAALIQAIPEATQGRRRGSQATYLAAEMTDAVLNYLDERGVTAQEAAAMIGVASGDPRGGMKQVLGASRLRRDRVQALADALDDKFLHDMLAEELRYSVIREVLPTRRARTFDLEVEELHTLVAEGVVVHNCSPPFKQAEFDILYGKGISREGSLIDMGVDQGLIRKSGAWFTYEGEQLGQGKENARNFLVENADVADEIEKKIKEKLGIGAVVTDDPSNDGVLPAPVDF
Briefly: Fluorescence Cell-Free Homogeneous Dose Retest to Identify Inhibitors of RecA-Intein Splicing Activity. [Related pubchem assays (depositor defined):AID2097, AID2223, AID489010, AID492950]. It counts as functional.

The target in assay [4] is Delta-type opioid receptor (Homo sapiens, UniProt P41143). The assay can be described thus: SAR Analysis of Antagonists of the DOR Receptor using an Image-Based Assay - Set 2. [Related pubchem assays (depositor defined):AID1777, AID1785, AID1786, AID1966, AID2133, AID2136, AID2284, AID2285, AID2357]. In kind it is functional.
Sequence of Delta-type opioid receptor (P41143 whole entry): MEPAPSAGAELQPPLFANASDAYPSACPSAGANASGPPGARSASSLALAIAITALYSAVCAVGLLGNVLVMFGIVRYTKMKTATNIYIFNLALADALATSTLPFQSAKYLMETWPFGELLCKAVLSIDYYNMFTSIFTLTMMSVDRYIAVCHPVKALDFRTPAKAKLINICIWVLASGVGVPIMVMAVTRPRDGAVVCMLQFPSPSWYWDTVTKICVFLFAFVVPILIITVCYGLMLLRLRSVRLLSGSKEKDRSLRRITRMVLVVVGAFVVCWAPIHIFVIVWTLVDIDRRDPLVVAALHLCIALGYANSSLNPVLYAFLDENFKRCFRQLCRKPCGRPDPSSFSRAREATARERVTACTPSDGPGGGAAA
The target of assay [5] is T3, Kappa-type opioid receptor (Homo sapiens, UniProt P41145). Briefly: SAR analysis of Antagonists of the Kappa Opioid Receptor (KOR) using an Image-Based Assay - Set 2. [Related pubchem assays (depositor defined):AID1777, AID1785, AID1786, AID1966, AID2133, AID2136, AID2284, AID2285, AID2348]. It counts as functional.
T3 sequence (P41145 whole entry): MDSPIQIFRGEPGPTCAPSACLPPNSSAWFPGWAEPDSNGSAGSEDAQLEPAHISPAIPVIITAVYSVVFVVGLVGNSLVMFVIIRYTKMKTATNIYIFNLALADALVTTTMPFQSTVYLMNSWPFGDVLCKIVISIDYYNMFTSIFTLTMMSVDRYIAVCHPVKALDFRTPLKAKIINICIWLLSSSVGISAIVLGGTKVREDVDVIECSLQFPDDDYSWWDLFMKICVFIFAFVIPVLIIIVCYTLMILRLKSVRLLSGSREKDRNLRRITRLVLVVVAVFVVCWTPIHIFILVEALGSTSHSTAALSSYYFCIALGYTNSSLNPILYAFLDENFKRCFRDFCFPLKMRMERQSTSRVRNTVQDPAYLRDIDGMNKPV
For assay [6], the target named is T3, Kappa-type opioid receptor. The assay can be described thus: SAR analysis of small molecule agonists of the kappa opioid receptor via a luminescent beta-arrestin assay - Set 2. [Related pubchem assays (depositor defined):AID1777, AID1785, AID1786, AID1966, AID2133, AID2136, AID2284, AID449737]. In kind it is functional.
For assay [7], the target named is T4, E3 ubiquitin-protein ligase XIAP (Homo sapiens, UniProt P98170). The assay can be described thus: SAR analysis of Antagonists of IAP-family anti-apoptotic proteins. [Related pubchem assays (depositor defined):AID1018, AID1449, AID1513, AID1514, AID1638].
T4 sequence (P98170 whole entry, the tested form may be a part): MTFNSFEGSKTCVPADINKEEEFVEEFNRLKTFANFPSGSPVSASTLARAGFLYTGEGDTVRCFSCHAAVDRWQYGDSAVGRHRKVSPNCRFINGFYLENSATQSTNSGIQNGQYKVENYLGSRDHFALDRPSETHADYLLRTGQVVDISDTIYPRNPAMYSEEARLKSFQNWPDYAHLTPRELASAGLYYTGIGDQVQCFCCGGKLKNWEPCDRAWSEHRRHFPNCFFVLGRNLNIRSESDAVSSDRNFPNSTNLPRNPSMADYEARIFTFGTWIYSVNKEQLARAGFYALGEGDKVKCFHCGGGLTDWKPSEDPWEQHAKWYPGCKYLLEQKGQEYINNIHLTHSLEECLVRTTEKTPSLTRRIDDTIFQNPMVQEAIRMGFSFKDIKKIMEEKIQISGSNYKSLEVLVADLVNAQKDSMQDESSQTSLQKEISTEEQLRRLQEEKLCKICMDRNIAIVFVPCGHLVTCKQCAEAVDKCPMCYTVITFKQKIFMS
For assay [8], the target named is T4, E3 ubiquitin-protein ligase XIAP. The assay can be described thus: SAR analysis of Antagonists of XIAP-Bir3 domain of IAP-family anti-apoptotic proteins. [Related pubchem assays (depositor defined):AID1018, AID1449, AID1513, AID1514, AID1638].

Calls of active or inactive are those of the source. Unless noted, the rule behind the calls is not given here. Non-standard residues stand in square brackets, D forms with d. Residues, ends and D or L forms follow the SMILES beside them. dChg = N[C@@H](C(=O)O)C1CCCCC1; NMeA = CN[C@@H](C)C(=O)O

Sequence of Intestinal-type alkaline phosphatase (P09923 whole entry): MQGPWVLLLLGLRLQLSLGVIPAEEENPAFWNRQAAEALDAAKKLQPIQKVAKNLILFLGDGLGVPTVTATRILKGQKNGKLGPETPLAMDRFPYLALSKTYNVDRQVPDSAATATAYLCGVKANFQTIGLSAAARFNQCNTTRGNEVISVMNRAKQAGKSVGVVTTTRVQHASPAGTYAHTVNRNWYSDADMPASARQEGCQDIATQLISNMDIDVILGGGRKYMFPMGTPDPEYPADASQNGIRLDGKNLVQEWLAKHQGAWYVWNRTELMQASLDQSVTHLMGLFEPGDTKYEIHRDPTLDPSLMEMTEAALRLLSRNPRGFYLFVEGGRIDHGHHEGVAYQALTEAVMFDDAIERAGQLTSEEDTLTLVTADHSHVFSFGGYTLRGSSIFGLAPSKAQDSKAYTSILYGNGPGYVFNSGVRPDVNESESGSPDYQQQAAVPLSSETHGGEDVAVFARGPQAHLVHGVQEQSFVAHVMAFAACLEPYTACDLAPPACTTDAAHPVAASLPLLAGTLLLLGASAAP

Take `O=C(COc1ccc(Br)cc1)NCCCn1ccnc1`: in [1], the EC50 is > 100 µM (inactive).

`COC(=O)c1nc(O)c2ccccc2c1O`: in assay [2], the IC50 is 42 µM (inactive). In addition, the AC50 in assay [3] is 5.62 µM (active). Further, the EC50 at Protein RecA was 3.57 µM (active).

In the case of `CC[C@](C)(C(=O)Nc1ccc(Br)cc1)N(Cc1ccco1)C(=O)c1ccccn1`, the IC50 in [4] and in [5] was > 32 µM (inactive) each time. The EC50 in assay [6] was 0.0802 µM (active).

As to `CC1CCCc2ccccc21.CN[C@@H](C)C(=O)N[C@@H](C(=O)N1CCC[C@H]1C(N)=O)C1CCCCC1` (H-[NMeA]-[dChg]-Pro-NH2), the IC50 in [7] and in [8] was > 100 µM (inactive) in each case.

(Values after ChEMBL document CHEMBL1201862, “PubChem BioAssay data set” (2004).)
